Source: paper PMC5368959, “Uricosuric targets of tranilast” (Pharmacology Research & Perspectives, 2017)
Like-named read-outs stand apart in the source and are kept apart here.

Legend:
Format in all cases: cell-based
URAT1 [1] = target: T1, URAT1 (Homo sapiens, UniProt Q96S37); assay: [14C]-urate uptake by URAT1-expressing Xenopus oocytes
T1 sequence (Q96S37 1-553): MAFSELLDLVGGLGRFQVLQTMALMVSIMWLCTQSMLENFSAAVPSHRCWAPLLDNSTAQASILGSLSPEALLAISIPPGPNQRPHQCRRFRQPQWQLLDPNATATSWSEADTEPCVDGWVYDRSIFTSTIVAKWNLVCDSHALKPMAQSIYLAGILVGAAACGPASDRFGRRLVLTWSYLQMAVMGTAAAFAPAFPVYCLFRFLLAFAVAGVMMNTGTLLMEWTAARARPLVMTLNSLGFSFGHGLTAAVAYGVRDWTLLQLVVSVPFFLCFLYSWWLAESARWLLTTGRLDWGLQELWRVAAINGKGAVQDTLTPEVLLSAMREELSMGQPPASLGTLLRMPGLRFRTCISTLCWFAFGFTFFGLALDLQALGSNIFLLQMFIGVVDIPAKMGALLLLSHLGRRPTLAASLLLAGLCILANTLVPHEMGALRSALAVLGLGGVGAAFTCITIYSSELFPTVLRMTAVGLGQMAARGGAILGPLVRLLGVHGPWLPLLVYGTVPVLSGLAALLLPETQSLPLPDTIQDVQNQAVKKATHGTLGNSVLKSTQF
Excerpt: (§1) For uptake experiments, oocytes were washed four times with ND96 medium (pH 7.4) without pyruvate and gentamycin.

OAT10 [2] = target: T2, OAT10 (Homo sapiens, UniProt Q9Y226); assay: [14C]-urate uptake by OAT10-expressing Xenopus oocytes; conditions: preloaded 50 nL of 100 mmol/L
Excerpt: as §1
(A) Time course of [^14C]‐urate uptake by control and […] oocytes. […] Inset, western blot analysis of OAT10 protein expressed in oocytes. […] (C) [^14C]‐urate transport properties of OAT10: voltage sensitivity and Na+‐dependence was examined by replacing extracellular NaCl by KCl or LiCl. Existence of urate/Cl^− exchange mechanism or Cl^− dependence or cis‐inhibitory effects of extracellular Cl^− on was verified by [^14C]‐urate uptake via OAT10 in the absence of extracellular Cl^− ion (0 Cl^−). In 0 Cl^− bath, NaCl was replaced by Na‐gluconate (Na‐Gluc), KCl by K‐gluconate (K‐Gluc), MgCl2 by Mg‐gluconate, and CaCl2 by Ca‐gluconate. […] Data are mean ± S.E. with n = 12–15.

OAT10 [3] = target: T2, OAT10; assay: [14C]-nicotinate uptake by OAT10-expressing Xenopus oocytes; conditions: preloaded with nonlabeled anion; ND96
Protocol: as §1
Chloride ion‐dependence was also assessed; in 0 Cl^− bath, NaCl was replaced by Na‐gluconate (Na‐Gluc), KCl by K‐gluconate (K‐Gluc), MgCl2 by Mg‐gluconate, and CaCl2 by Ca‐gluconate. […] Data are mean ± S.E. with n = 12–15.

URAT1 [4] = target: T1, URAT1; assay: [14C]-nicotinate uptake by URAT1-expressing Xenopus oocytes; conditions: for cis-inhibition of URAT1-mediated [14C]-nicotinate uptake by extracellular anion: data not shown
Excerpt: as §1
Data are mean ± S.E. with n = 12–15.

GLUT9a = target: T3, GLUT9a (Homo sapiens, UniProt Q9NRM0); assay: [14C]-urate uptake by GLUT9a-expressing Xenopus oocytes
T3 sequence (Q9NRM0 1-540): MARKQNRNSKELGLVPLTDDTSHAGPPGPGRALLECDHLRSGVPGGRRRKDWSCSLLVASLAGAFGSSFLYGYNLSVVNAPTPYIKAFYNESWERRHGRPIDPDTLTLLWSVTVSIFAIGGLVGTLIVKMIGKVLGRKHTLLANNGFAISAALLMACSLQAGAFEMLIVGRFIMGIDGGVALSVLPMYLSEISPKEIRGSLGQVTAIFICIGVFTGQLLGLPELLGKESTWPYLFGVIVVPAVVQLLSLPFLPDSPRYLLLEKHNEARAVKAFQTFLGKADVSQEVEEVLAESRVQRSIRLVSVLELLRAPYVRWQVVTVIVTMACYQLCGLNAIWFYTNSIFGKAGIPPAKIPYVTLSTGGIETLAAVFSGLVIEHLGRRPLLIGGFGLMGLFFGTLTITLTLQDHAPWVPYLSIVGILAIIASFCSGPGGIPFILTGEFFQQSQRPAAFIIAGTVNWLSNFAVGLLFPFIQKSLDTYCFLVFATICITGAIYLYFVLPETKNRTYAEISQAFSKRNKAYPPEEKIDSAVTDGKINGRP
Excerpt: as §1
We sought to investigate the effect of tranilast on GLUT9a‐mediated [^14C]‐urate uptake in Xenopus laevis oocytes.

OAT4 = target: T4, OAT4 (Homo sapiens, UniProt Q9NSA0); assay: [14C]-urate uptake by OAT4-expressing Xenopus oocytes; conditions: for trans-stimulatory effect of preloaded anion on OAT4-mediated urate uptake: preinjected 50 nL of 100 mmol/L; for cis-inhibition of OAT4-mediated, maleate trans-stimulated urate uptake: 10 mM extracellular anion
T4 sequence (Q9NSA0 1-550): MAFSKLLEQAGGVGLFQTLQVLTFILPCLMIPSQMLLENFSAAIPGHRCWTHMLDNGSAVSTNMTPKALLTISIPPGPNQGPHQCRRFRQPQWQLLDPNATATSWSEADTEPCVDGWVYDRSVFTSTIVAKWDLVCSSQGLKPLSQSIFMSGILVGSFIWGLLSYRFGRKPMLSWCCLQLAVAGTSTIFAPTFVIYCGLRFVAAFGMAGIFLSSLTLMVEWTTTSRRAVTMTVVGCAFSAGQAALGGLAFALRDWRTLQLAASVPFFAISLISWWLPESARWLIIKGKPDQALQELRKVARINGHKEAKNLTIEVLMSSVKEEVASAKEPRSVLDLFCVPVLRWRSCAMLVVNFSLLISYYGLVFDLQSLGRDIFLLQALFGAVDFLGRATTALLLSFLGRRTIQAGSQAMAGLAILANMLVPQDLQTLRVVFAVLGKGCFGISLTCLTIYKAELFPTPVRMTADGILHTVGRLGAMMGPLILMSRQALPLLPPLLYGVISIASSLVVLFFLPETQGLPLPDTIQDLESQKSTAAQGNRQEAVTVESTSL
Protocol: as §1
(A) The uptake of [^14C]‐urate by OAT4‐expressing oocytes was performed in ND96 medium (pH 7.4) at ~25°C for 1 h. Na^+‐dependence was examined by replacing extracellular NaCl by KCl. […] (B) The inhibition of [^14C]‐urate uptake by OAT4 was examined in the presence of extracellular organic anions (for cis‐inhibition) or uricosuric drugs at the indicated concentrations. […] Data are mean ± S.E. with n = 12–15.

OAT3 = target: T5, OAT3 (Mus musculus, UniProt O88909); assay: [14C]-urate uptake by OAT3-expressing Xenopus oocytes
T5 sequence (O88909 1-537): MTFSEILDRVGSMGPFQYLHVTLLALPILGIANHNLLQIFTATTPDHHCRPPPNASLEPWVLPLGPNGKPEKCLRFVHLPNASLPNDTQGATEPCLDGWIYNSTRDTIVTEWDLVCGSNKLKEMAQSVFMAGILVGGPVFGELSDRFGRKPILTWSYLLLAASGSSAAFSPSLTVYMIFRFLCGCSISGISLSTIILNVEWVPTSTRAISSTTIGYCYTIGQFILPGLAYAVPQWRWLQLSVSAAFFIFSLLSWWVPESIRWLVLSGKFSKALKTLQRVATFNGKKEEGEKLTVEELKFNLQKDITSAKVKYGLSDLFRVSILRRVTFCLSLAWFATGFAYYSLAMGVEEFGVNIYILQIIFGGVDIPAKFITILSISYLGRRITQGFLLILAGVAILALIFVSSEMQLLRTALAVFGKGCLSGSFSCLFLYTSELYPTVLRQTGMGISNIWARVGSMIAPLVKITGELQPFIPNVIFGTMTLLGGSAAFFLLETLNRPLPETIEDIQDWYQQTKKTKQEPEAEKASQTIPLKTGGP
Protocol: as §1
The uptake of [^14C]‐urate (40 μmol/L) was performed in ND96 medium (pH 7.4) at ~25°C for 1 h.

T2 sequence (Q9Y226 whole entry): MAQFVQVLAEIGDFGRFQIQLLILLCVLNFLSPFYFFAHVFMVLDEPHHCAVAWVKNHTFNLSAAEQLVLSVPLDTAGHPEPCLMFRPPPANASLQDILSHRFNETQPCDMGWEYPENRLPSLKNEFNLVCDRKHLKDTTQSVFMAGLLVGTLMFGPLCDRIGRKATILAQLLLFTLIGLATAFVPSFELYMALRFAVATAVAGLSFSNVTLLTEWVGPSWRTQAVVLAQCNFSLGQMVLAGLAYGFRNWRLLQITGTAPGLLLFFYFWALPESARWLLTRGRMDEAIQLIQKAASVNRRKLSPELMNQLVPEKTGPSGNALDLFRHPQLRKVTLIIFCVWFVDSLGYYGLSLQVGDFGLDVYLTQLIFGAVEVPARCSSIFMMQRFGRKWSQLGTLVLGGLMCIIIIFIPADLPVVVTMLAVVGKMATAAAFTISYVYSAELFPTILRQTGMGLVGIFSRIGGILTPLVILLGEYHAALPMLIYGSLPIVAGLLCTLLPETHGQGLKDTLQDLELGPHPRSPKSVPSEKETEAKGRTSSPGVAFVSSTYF

## CC(O)CC(=O)O (stereo not drawn) [BHB, β‐hydroxy butyrate]
URAT1 [1]
  trans-stimulatory effect of preloaded intracellular anion on URAT1-mediated urate uptake: did not however detect any significant trans‐stimulatory effect
URAT1 [1]; 10 mM extracellular anion
  cis-inhibition of URAT1-mediated urate uptake by extracellular organic anion: not cis‐inhibited
OAT10 [2]
  trans-stimulatory effect of preloaded anion on OAT10-mediated urate uptake: modest trans‐stimulatory effect

## Nc1ccc(C(=O)NCC(=O)O)cc1 [PAH, para‐aminohippurate]
URAT1 [1]
  trans-stimulatory effect of preloaded intracellular anion on URAT1-mediated urate uptake: did not however detect any significant trans‐stimulatory effect
URAT1 [1]; 10 mM extracellular anion
  cis-inhibition of URAT1-mediated urate uptake by extracellular organic anion: not cis‐inhibited

## O=C(O)c1cnccn1 [PZA, pyrazine carboxylate]
OAT10 [3]
  OAT10 [14C]-nicotinate uptake after preloading, fold over PZA-preloaded control oocytes: 118–120 fold
URAT1 [1]; 10 mM extracellular anion
  cis-inhibition of URAT1-mediated urate uptake by extracellular organic anion: cis‐inhibition
URAT1 [1]; oocytes preloaded with nonlabeled anion
  URAT1 urate uptake after preloading with anion (trans-stimulation), fold over preloaded control oocytes: 70–75 fold
URAT1 [4]
  cis-inhibition of URAT1-mediated [14C]-nicotinate uptake by extracellular anion: cis‐inhibited
URAT1 [4]; preloaded anion
  URAT1 [14C]-nicotinate uptake after preloading (trans-stimulation), fold over water-injected control oocytes: 19–20 fold
GLUT9a; Fig. 2C
  Effect of extracellular anion on GLUT9a activity: no effect
OAT4
  trans-stimulatory effect of preloaded anion on OAT4-mediated urate uptake: no significant effects
OAT3; 10 mmol/L extracellular anion
  cis-inhibition of OAT3-mediated urate uptake by extracellular anion: almost completely cis‐inhibited
OAT3; preloaded anion
  Effect of preloaded intracellular anion on OAT3 [14C]-urate uptake (trans-stimulation): did not have any effect
OAT10 [2]
  trans-stimulatory effect of preloaded anion on OAT10-mediated urate uptake: modest trans‐stimulatory effect

## O=C(O)CC(O)(CC(=O)O)C(=O)O [citrate]
URAT1 [1]; 10 mM extracellular anion
  cis-inhibition of URAT1-mediated urate uptake by extracellular organic anion: not cis‐inhibited

## O=CO [formate]
URAT1 [1]
  cis-inhibition of URAT1-mediated urate uptake by extracellular organic anion: not cis‐inhibited

## CC(O)C(=O)O (stereo not shown) [lactate]
URAT1 [1]
  trans-stimulatory effect of preloaded intracellular anion on URAT1-mediated urate uptake: did not however detect any significant trans‐stimulatory effect
URAT1 [1]; 10 mM extracellular anion
  cis-inhibition of URAT1-mediated urate uptake by extracellular organic anion: not cis‐inhibited

## O=C(O)/C=C\C(=O)O [maleate]
URAT1 [1]; 10 mM extracellular anion
  cis-inhibition of URAT1-mediated urate uptake by extracellular organic anion: not cis‐inhibited
OAT4
  cis-inhibition of OAT4-mediated, maleate trans-stimulated urate uptake: efficiently cis‐inhibited
  trans-stimulatory effect of preloaded anion on OAT4-mediated urate uptake: modest trans‐stimulatory effect

## O=C(O)C(=O)O [oxalate]
URAT1 [1]; 10 mM extracellular anion
  cis-inhibition of URAT1-mediated urate uptake by extracellular organic anion: not cis‐inhibited

## CC(=O)C(=O)O [pyruvate]
URAT1 [1]; 10 mM extracellular anion
  cis-inhibition of URAT1-mediated urate uptake by extracellular organic anion: not cis‐inhibited

## O=C(O)c1ccccc1O [salicylate]
URAT1 [1]
  cis-inhibition of URAT1-mediated urate uptake by extracellular organic anion: cis‐inhibition
URAT1 [4]
  cis-inhibition of URAT1-mediated [14C]-nicotinate uptake by extracellular anion: cis‐inhibited
GLUT9a
  Effect of extracellular anion on GLUT9a activity: no effect

## O=C(O)CCC(=O)O [succinate]
URAT1 [1]
  cis-inhibition of URAT1-mediated urate uptake by extracellular organic anion: not cis‐inhibited
OAT4
  cis-inhibition of OAT4-mediated, maleate trans-stimulated urate uptake: much less cis‐inhibition
  trans-stimulatory effect of preloaded anion on OAT4-mediated urate uptake: no significant effects

## O=c1[nH]c(=O)c2[nH]c(=O)[nH]c2[nH]1 [urate]
URAT1 [4]
  cis-inhibition of URAT1-mediated [14C]-nicotinate uptake by extracellular anion: cis‐inhibited
